In PMC7617869, “Molecular glues that inhibit deubiquitylase activity and inflammatory signaling” (Nature Structural & Molecular Biology, 2025):
Values joined by “and” are separate entries in the source; they are usually repeats but may differ in a detail not shown here. Identical values can stand only once.

Key:
Format in all cases: biochemical
[1] = system: AMSH* (a STAM2–AMSH fusion); assay: AMSH* IQF DUB activity assay; conditions: Fig. 1g, AMSH*
Protocol: (§1) IQF assays were performed in DUB reaction buffer containing 50 mM HEPES–NaOH pH 7.0, 100 mM NaCl, 0.1 mg ml^−1 BSA, 1 mM DTT and 0.03% v/v Brij-35. […] The final concentration of BRISC WT, all BRISC mutants, HsBRISCΔLoop, MmBRISC and DrBRISCΔNΔC was 1 nM. Other enzymes were tested at the following concentrations: 5 nM ARISC (FL), 10 nM CfBRISCΔNΔC, 250 nM AMSH* (ref. [43]), 500 nM USP2 and 1 μM trypsin (Sigma, 9002-07-7). For Michaelis–Menten experiments, 1 nM BRISC with 0–1 μM IQF K63-linked diubiquitin substrate was used. Michaelis–Menten analyses and Lineweaver–Burk plots were calculated using GraphPad Prism (version 9.0).
(§2) To assess enzymatic activity, BRISC complexes were diluted to concentrations between 1 nM and 50 nM. […] Then, 20-μl enzyme reactions were carried out in 384-well black flat-bottom low-flange plates (Corning, 35373). DUB activity was measured using IQF K63-linked diubiquitin (LifeSensors, DU6303) at 50 nM. Cleaved diubiquitin was monitored by measuring fluorescence intensity (excitation, 544 nm; emission, 575 nm; dichroic mirror, 560 nm). Fluorescence intensity was measured every minute for 30 min at 30 °C. Fluorescence intensity units were plotted against time to generate a linear reaction progress curve, where the initial velocity (V0) corresponds to the gradient of the curve (typically achieved within 15 min). IC50 values were calculated using the GraphPad Prism (version 9.0) built-in dose–response equation for inhibitor concentration versus response (variable slope).

[2] = target: T1, USP2 (Homo sapiens, UniProt O75604); assay: USP2 IQF diubiquitin selectivity assay; conditions: Fig. 1g, USP2
T1 construct: His (N, cleaved yes); host or cells: Escherichia coli BL21(DE3)
T1 sequence (O75604 258-605 limits assumed): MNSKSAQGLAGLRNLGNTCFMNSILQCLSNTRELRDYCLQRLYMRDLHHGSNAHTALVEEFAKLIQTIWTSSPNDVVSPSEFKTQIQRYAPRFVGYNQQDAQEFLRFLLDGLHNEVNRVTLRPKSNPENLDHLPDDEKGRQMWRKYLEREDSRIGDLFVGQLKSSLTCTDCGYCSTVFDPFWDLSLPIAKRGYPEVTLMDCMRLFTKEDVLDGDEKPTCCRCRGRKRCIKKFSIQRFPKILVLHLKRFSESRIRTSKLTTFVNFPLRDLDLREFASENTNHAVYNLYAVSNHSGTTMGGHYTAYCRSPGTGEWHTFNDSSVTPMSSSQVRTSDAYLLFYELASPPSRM
Protocol: BRISC DUB activity was measured at room temperature using 1 nM BRISC and 500 nM IQF diubiquitin K63 substrate (LifeSensors, DU6303) in the presence of DMSO and compounds at 10 μM (final concentrations). Assays were performed in 384-well black flat-bottom low-flange plates (Corning, 35373) in buffer containing 50 mM HEPES–NaOH pH 7.0, 100 mM NaCl, 1 mg ml^−1 BSA, 1 mM DTT and 0.03% v/v Brij-35. Then, 10 μl of twofold concentrated enzyme stock was dispensed, followed by transfer of 200 nl of compounds (1 mM stock) using a 384-pin tool and a 15-min incubation at room temperature. Then, 10 μl of twofold concentrated substrate stock was added and the reaction was monitored by measuring fluorescence intensity (excitation, 540 nm; emission, 580 nm) after 20-min incubation at room temperature and ~50% of substrate was consumed. Orthogonal assays for verification of H20 and P12 hit compounds using USP2 (100 nM) and trypsin (125 nM) were performed in identical conditions.
as §1, §2

[3] = target: T2, BRCC36–Abraxas 2 complex (Homo sapiens, UniProt P46736+Q15018); assay: BRCC36–Abraxas 2 IQF DUB activity assay; conditions: for Normalised V0: Fig. 1g, HsBRCC36-Abraxas2
T2 construct: made in house; host or cells: Spodoptera frugiperda (Sf9) insect cells, MultiBac
Protocol: as §1, §2

## O=C(NC1C2CNCC21)c1nn(C(=O)c2c(Cl)cccc2Cl)cc1NC(=O)c1c(Cl)cccc1Cl (stereo not shown) [FX-171-C]
[1]; FX-171-C 0.02 μM
  Normalised V0: 1.102 and 0.9959 and 1.122
[1]; FX-171-C 0.0399999 μM
  Normalised V0: 1.076 and 0.9687 and 1.118
[1]; FX-171-C 0.0599997 μM
  Normalised V0: 1.166 and 0.9974 and 1.026
[1]; FX-171-C 0.0799994 μM
  Normalised V0: 1.155 and 1.046 and 1.034
[1]; FX-171-C 0.119998 μM
  Normalised V0: 1.236 and 1.107 and 1.142
[1]; FX-171-C 0.199996 μM
  Normalised V0: 1.177 and 1.065 and 1.2539
[1]; FX-171-C 0.499975 μM
  Normalised V0: 0.9946 and 0.8997 and 1.162
[1]; FX-171-C 0.799936 μM
  Normalised V0: 1.22 and 0.8896 and 1.186
[1]; FX-171-C 1.25984 μM
  Normalised V0: 1.058 and 1.1 and 1.143
[1]; FX-171-C 1.9996 μM
  Normalised V0: 1.14 and 1.15 and 1.191
[1]; FX-171-C 3.159 μM
  Normalised V0: 1.081 and 1.064 and 1.2182
[1]; FX-171-C 5.19739 μM
  Normalised V0: 0.9976 and 1.106 and 1.16
[1]; FX-171-C 7.99364 μM
  Normalised V0: 1.138 and 1.066 and 1.161
[1]; FX-171-C 12.7839 μM
  Normalised V0: 1.171 and 0.9747 and 1.21
[1]; FX-171-C 19.96 μM
  Normalised V0: 0.7795 and 0.741 and 1.28
[1]; FX-171-C 31.4999 μM
  Normalised V0: 1.112 and 1.039 and 1.002
[1]; FX-171-C 50.147 μM
  Normalised V0: 1.1142 and 0.9322 and 1.253
[1]; FX-171-C 79.7601 μM
  Normalised V0: 1.095 and 0.9276 and 1.158
[1]; FX-171-C 125.99 μM
  Normalised V0: 1.097 and 0.9974 and 1.112
[1]; FX-171-C 199.922 μM
  Normalised V0: 0.8792 and 0.8896 and 0.9452
[2]; FX-171-C 0.02 μM
  Normalised V0: 1.153 and 1.005 and 0.8911
[2]; FX-171-C 0.0399999 μM
  Normalised V0: 1.181 and 1.054 and 0.8345
[2]; FX-171-C 0.0599997 μM
  Normalised V0: 1.101 and 1.035 and 0.8564
[2]; FX-171-C 0.0799994 μM
  Normalised V0: 1.262 and 0.9465 and 0.964
[2]; FX-171-C 0.119998 μM
  Normalised V0: 1.156 and 1.12 and 1.0155
[2]; FX-171-C 0.199996 μM
  Normalised V0: 1.162 and 0.9867 and 0.9385
[2]; FX-171-C 0.499975 μM
  Normalised V0: 1.323 and 0.7865 and 0.9403
[2]; FX-171-C 0.799936 μM
  Normalised V0: 1.167 and 0.9524 and 0.9376
[2]; FX-171-C 1.25984 μM
  Normalised V0: 1.254 and 0.9797 and 0.8377
[2]; FX-171-C 1.9996 μM
  Normalised V0: 1.211 and 0.9571 and 0.9503
[2]; FX-171-C 3.159 μM
  Normalised V0: 1.329 and 0.7564 and 0.948
[2]; FX-171-C 5.19739 μM
  Normalised V0: 1.206 and 0.9941 and 0.9284
[2]; FX-171-C 7.99364 μM
  Normalised V0: 1.269 and 0.9668 and 0.7862
[2]; FX-171-C 12.7839 μM
  Normalised V0: 1.167 and 1.027 and 0.9175
[2]; FX-171-C 19.96 μM
  Normalised V0: 1.282 and 0.8934 and 0.9216
[2]; FX-171-C 31.4999 μM
  Normalised V0: 1.071 and 0.9617 and 0.949
[2]; FX-171-C 50.147 μM
  Normalised V0: 1.087 and 1.072 and 0.8163
[2]; FX-171-C 79.7601 μM
  Normalised V0: 1.1 and 0.8638 and 0.912
[2]; FX-171-C 125.99 μM
  Normalised V0: 1.048 and 0.9793 and 0.8997
[2]; FX-171-C 199.922 μM
  Normalised V0: 1.047 and 0.829 and 0.8108
[3]; FX-171-C 0.02 μM
  Normalised V0: 1.3 and 1.008 and 1.02
[3]; FX-171-C 0.0399999 μM
  Normalised V0: 1.022 and 1.101 and 0.829
[3]; FX-171-C 0.0599997 μM
  Normalised V0: 1.02 and 1.119 and 0.8587
[3]; FX-171-C 0.0799994 μM
  Normalised V0: 1.3 and 1.0735 and 0.9036
[3]; FX-171-C 0.119998 μM
  Normalised V0: 1.089 and 1.054 and 0.9805
[3]; FX-171-C 0.199996 μM
  Normalised V0: 1.086 and 0.9378 and 0.7276
[3]; FX-171-C 0.499975 μM
  Normalised V0: 1.276 and 0.8855 and 0.9134
[3]; FX-171-C 0.799936 μM
  Normalised V0: 1.016 and 0.9326 and 0.9281
[3]; FX-171-C 1.25984 μM
  Normalised V0: 1.192 and 1.006 and 0.8037
[3]; FX-171-C 1.9996 μM
  Normalised V0: 1.057 and 0.8883 and 0.8901
[3]; FX-171-C 3.159 μM
  Normalised V0: 1.054 and 1.032 and 0.8522
[3]; FX-171-C 5.19739 μM
  Normalised V0: 1.053 and 0.9454 and 1.03
[3]; FX-171-C 7.99364 μM
  Normalised V0: 1.141 and 1 and 1.012
[3]; FX-171-C 12.7839 μM
  Normalised V0: 1.078 and 0.9313 and 0.7823
[3]; FX-171-C 19.96 μM
  Normalised V0: 1.034 and 1.063 and 0.8934
[3]; FX-171-C 31.4999 μM
  Normalised V0: 1.1494 and 0.9768 and 0.8462
[3]; FX-171-C 50.147 μM
  Normalised V0: 1.218 and 1.114 and 0.9054
[3]; FX-171-C 79.7601 μM
  Normalised V0: 1.112 and 1.275 and 1.169
[3]; FX-171-C 125.99 μM
  Normalised V0: 1.275 and 1.029 and 0.9009
[3]; FX-171-C 199.922 μM
  Normalised V0: 1.127 and 0.8107 and 0.6392
[3]; minimally active complex
  inhibition of BRCC36–Abraxas 2 complex: did not inhibit
